Test results reported in patent publication US8507494B2, “Heterocyclic quinolizine derived M1 receptor positive allosteric modulators” (Merck Sharp & Dohme Corp., priority 2010, dated 2013).

Target: T1, acetylcholine muscarinic M1 receptor (Homo sapiens, UniProt P11229)
T1 construct: expressed in transfected cells; host or cells: CHOnfat cells (CHOnfat/hM1)
T1 sequence (P11229 1-460): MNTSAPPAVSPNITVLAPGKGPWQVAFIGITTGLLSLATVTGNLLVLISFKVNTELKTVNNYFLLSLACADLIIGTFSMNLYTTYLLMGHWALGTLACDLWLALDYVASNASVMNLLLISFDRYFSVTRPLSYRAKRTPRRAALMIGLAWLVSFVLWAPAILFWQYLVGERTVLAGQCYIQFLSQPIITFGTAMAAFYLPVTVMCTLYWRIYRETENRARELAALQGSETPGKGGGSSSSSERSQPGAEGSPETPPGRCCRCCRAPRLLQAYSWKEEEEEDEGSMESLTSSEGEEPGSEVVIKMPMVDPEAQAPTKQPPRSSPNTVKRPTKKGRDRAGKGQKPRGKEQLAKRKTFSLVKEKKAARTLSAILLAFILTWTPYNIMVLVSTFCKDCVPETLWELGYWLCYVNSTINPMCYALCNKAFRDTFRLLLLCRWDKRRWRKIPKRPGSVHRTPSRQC
Assay: FLIPR intracellular calcium assay for M1 receptor positive allosteric modulator activity
Assay type: cell-based
Details: inflection point from FLIPR values; CHOnfat/hM1 cells; 4 min preincubation, then EC20 acetylcholine (3 nM final); read-out: M1 IP Value
Procedure: The assay studies the effect of one or several concentrations of test compounds on basal or acetylcholine-stimulated Ca^2+ levels using FLIPR.
Compounds are prepared and subjected to a preincubation period of 4 min. Thereafter, a single EC20 concentration of acetylcholine is added to each well (3 nM final). The intracellular Ca^2+ level of each sample is measured and compared to an acetylcholine control to determine any modulatory activity.
Cells: CHOnfat/hM1, hM2, hM3 or hM4 cells are plated 24 hr before the assay at a density of 18,000 cells/well (100 μL) in a 384 well plate. CHOnfat/hM1 and CHOnfat/hM3 Growth Medium: 90% DMEM (Hi Glucose); 10% HI FBS; 2 mM L-glutamine; 0.1 mM NEAA; Pen-Strep; and […] Geneticin, are added. For M2Gqi5CHOnfat and M4Gqi5CHOnfat cells, an additional 600 ug/ml hygromycin is added.
Equipment: 384 well plate, 120 μL addition plate; 96-well Whatman 2 ml Uniplate Incubator, 37° C., 5% CO2; Skatron EMBLA-384 Plate Washer; Multimek Pipetting System; Genesis Freedom 200 System; Mosquito System; Temo Nanolitre Pipetting System; and FLIPR^384 Fluorometric Imaging Plate Reader System are used.
Buffers. […]
After 60 min, the cells are washed three times with 100 μL of buffer, leaving 30 μL of buffer in each well. […] A signal test to check background fluorescence and basal fluorescence signal is performed. […]

| Structure (SMILES) | EC50 |
| --- | --- |
| Cc1ccnc(C2(C#N)CCN(Cc3cc4c(=O)n(-c5ccccc5F)nc-4n4ccccc34)CC2)c1 [Example 1, 1-{[2-(2-Fluorophenyl)-3-oxo-2,3-dihydropyrazolo[4,3-c]quinolizin-5-yl]methyl}-4-(4-methylpyridin-2-yl)piperidine-4-carbonitrile] | 0.175 µM |
| Cn1cc(N2CCN(Cc3cc4c(=O)n(-c5ccccc5F)nc-4n4ccccc34)CC2=O)cn1 [Example 2, 2-(2-Fluorophenyl)-5-{[4-(1-methyl-1H-pyrazol-4-yl)-3-oxopiperazin-1-yl]methyl}pyrazolo[4,3-c]quinolizin-3(2H)-one] | 0.322 µM |
